Reference: patent US8258130B2 (Sanofi, priority 2007, dated 2012)

molecular target: human h-PGDS (Homo sapiens, UniProt O60760); assay: Enzyme Immunoassay (EIA) method, inhibition of hematopoietic PGD2 synthase; format: biochemical; settings: EIA assay, PGD2 formed from PGH2 by human h-PGDS
Description: Assay 2: Enzyme Immunoassay (EIA) Method
• a. Preparation of 0.1M K2HPO4/KH2PO4 buffer (pH 7.4) • Prepare 0.1 M KH2PO4 from 1M KH2PO4 (Sigma, Cat# P-8709) • Prepare 0.1 M K2HPO4 from powder of K2HPO4 (Fisher, BP363-500) • Mix 0.1 M K2HPO4 with 0.1 M KH2PO4 to adjust pH to 7.4. • b. Preparation of 0.5% γ-globulin • Add 0.1 g of γ-globulin (Sigma, Cat# G-5009) to 20 mL 0.1 M K2HPO4/KH2PO4 buffer (pH 7.4) and make 1-mL/vial aliquots and store in −80° C. • c. Preparation of 100 mM GSH • Add 307 mg of GSH (Sigma, Cat# G-6529) to 10 mL 0.1 M K2HPO4/KH2PO4 buffer (pH 7.4) and store at −80° C. • d. Preparation of Reaction buffer: • 198 mL of 0.1M K2HPO4/KH2PO4 buffer (pH 7.4) • 2 mM GSH—Prepared from 100 mM GSH • 0.4 g Glycerol • 2 mL of 0.5% γ-globulin • Add 0.4 g of glycerol and 2 mL of 0.5% γ-globulin to 198 mL of 0.1 M K2HPO4/KH2PO4 • buffer (pH7.4). • Add 0.4 mL of 100 mM GSH to 19.6 mL reaction buffer before the assay (enough for two 96-well plates). • e. Preparation of FeCl2/citric acid stopping solution: (8 mg/mL FeCl2, 0.1 M citric acid) • Add 40 mg fresh FeCl2 (IGN, Cat# 158046) to 5 mL 0.1 M citric acid (Sigma, Cat# C0759). • f. Preparation of MOX reagent: • 10% EtOH—Add 1 mL of EtOH to 9 mL of ultra pure H2O • Dissolve 0.1 g of methoxyl amine (Cayman, Cat# 400036/) in 10% EtOH (10 mL). • Add 0.82 g of sodium acetate (Cayman, Cat#400037) to MOX solution and dissolve. II. Materials and Method • Dimethylsulfoxide (DMSO; Sigma; Cat# D2650) • Prostaglandin D2-MOX express EIA kit (Caymen Chemical, Catalog No. 500151)
Before the assay, cool down 10 mL of acetone in polypropylene tubes and empty 96 well plates in ice. All the procedures except compound dilution are performed on ice.
• 1. Dilute compound in DMSO
• 2. Dilute 2 μL of each above concentration of compound to 38 μL of reaction buffer in 96-well plates and mix. IV. Enzyme and Substrate Solution Preparation • 1 Preparation of 0.39 ng/μL enzyme solution (0.35 ng/μL at final after compound addition). • Mix 4 μL of 4 mg/mL human h-PGDS with 396 μL of reaction buffer (to give enzyme concentration 40 μg/mL). Add 46.8 μL of 40 μg/mL h-PGDS to 4.753 mL of reaction buffer to give a total volume of 4.8 mL • 2. Preparation of Substrate Solution (PGH2): Add 0.375 mL of 0.1 mg/mL of PGH2 to 1.625 mL acetone. V. Enzyme Reaction: • 1. Add 60 μL of enzyme solution to compound well and positive control (without compound) in U-bottom polypropylene plate on ice. • 2. Add 60 μL of reaction buffer and 6.6 μL of 5% DMSO in reaction buffer into negative control wells in the plate. • 3. Add 6.6 μL of diluted compound in reaction buffer to the compound wells and mix. • 4. Add 6.6 μL of 5% DMSO in reaction buffer to the positive control well. • 5. Incubate the plate in ice for at least 30 min. • 6. Add 20 μL of substrate (PGH2) solution to compound, negative and positive control wells in the U-bottom 96 well plate on ice. • 7. Dry the plate in cold room for about 25-28 min. • 8. Pipette 45 μL of enzyme solution (above) into 96-wells with dried PGH2 and mix 3 times. Incubate on the ice for 1 min. • 9. Add 45 μL of FeCl2 solution into each wells and mix. • 10. Add 90 μL of MOX solution and mix. • 11. Incubate for 30 min at 60° C. • 12. Dilute the samples 2500× with EIA buffer. VI. EIA Assay • Perform the assay according to the procedure in EIA kit provided by Cayman. Total PGD2 levels (pg/mL) were determined in the samples by EIA kits (Caymen Chemical, Catalog No. 500151) Calculate Amount of PGD2 as Below • Calculated % Positive control according to the equation below; % Positive control=(Compound value−Negative control)/(Positive value−Negative control value)×100. […]

Sequence of human h-PGDS (O60760 whole entry): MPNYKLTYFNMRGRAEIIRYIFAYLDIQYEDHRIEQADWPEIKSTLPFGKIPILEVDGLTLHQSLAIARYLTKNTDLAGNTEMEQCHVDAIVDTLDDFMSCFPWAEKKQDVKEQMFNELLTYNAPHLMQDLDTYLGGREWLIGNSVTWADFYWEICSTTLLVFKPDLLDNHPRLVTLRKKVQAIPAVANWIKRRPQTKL

Going from O=C(NN1CCN(CC(=O)N2CCOCC2)CC1)c1cnc(-c2ccccc2)nc1 [Example 90, 2-Phenyl-pyrimidine-5-carboxylic acid [4-(2-morpholin-4-yl-2-oxo-ethyl)-piperazin-1-yl]-amide] to O=C(NN1CCN(C2CCOC2=O)CC1)c1cnc(-c2ccccc2)nc1 (stereo not shown) [Example 87, 2-Phenyl-pyrimidine-5-carboxylic acid [4-(2-oxo-tetrahydro-furan-3-yl)-piperazin-1-yl]-amide], the IC50 falls from 0.832 µM to 0.026 µM (32-fold).

Cc1nc(-c2nccs2)ncc1C(=O)Nn1cc(CCC(C)(C)O)c2cc(F)ccc21 [Example 172, 4-Methyl-2-thiazol-2-yl-pyrimidine-5-carboxylic acid [5-fluoro-3-(3-hydroxy-3-methyl-butyl)-indol-1-yl]-amide] and Cc1nc(-c2ncccn2)ncc1C(=O)Nn1cc(C)c2cc(F)ccc21 [Example 157, 4-Methyl-[2,2′]bipyrimidinyl-5-carboxylic acid (5-fluoro-3-methyl-indol-1-yl)-amide] are within 1.5-fold of each other in IC50: 0.005 µM for the first, 0.0045 µM for the second.

CS(=O)(=O)c1ccc2ccn(NC(=O)c3cnc(-c4cccc(F)c4)nc3)c2c1 [Example 113, 2-(3-Fluoro-phenyl)-pyrimidine-5-carboxylic acid (6-methanesulfonyl-indol-1-yl)-amide] and O=C(Nn1ccc2c(F)cccc21)c1cnc(-c2cccc(F)c2)nc1 [Example 31, 2-(3-Fluorophenyl)pyrimidine-5-carboxylic acid-(4-fluoroindol-1-yl)amide] are within 1.5-fold of each other in IC50: 0.008 µM for the first, 0.011 µM for the second.

Going from Cc1nc(-c2ccccn2)ncc1C(=O)Nn1ccc2cc(F)ccc21 [Example 123, 4-Methyl-2-pyridin-2-yl-pyrimidine-5-carboxylic acid (5-fluoro-indol-1-yl)-amide] to Cc1nc(-c2ccccn2)ncc1C(=O)Nn1ccc2ccccc21 [Example 111, 4-Methyl-2-pyridin-2-yl-pyrimidine-5-carboxylic acid indol-1-ylamide], the IC50 falls from 0.017 µM to 0.005 µM (3.4-fold).

CC1Cc2ccccc2N1NC(=O)c1cnc(-c2ccccc2)nc1 (stereo not shown) [Example 99, 2-Phenyl-pyrimidine-5-carboxylic acid (2-methyl-2,3-dihydro-indol-1-yl)-amide] and CC1Cc2ccccc2N1NC(=O)c1cnc(-c2cccc(F)c2)nc1 (stereo not shown) [Example 100, 2-(3-Fluoro-phenyl)-pyrimidine-5-carboxylic acid (2-methyl-2,3-dihydro-indol-1-yl)-amide] are the same in IC50: 0.004 µM for the first, 0.004 µM for the second.

Going from O=C(NN1CCOc2ccc(F)cc21)c1cnc(-c2cccc(F)c2)nc1 [Example 211, 2-(3-Fluoro-phenyl)-pyrimidine-5-carboxylic acid (6-fluoro-2,3-dihydro-1,4-benzoxazin-4-yl)-amide] to O=C(NN1CCOc2ccc(F)cc21)c1cnc(-c2ccccc2)nc1 [Example 212, 2-Phenyl-pyrimidine-5-carboxylic acid (6-fluoro-2,3-dihydro-1,4-benzoxazin-4-yl)-amide], the IC50 rises from 0.012 µM to 0.021 µM (1.8-fold).

Compared with O=C(NN1CC(CN2CCOCC2)OC1=O)c1cnc(-c2ccccc2)nc1 (stereo not shown) [Example 75, 2-Phenyl-pyrimidine-5-carboxylic acid (5-morpholin-4-ylmethyl-2-oxo-oxazolidin-3-yl)-amide], O=C(Nn1cnnc1)c1cnc(-c2ccccc2)nc1 [Example 43, 2-Phenyl-pyrimidine-5-carboxylic acid [1,2,4]triazol-4-ylamide] is 13-fold higher in IC50: 0.02 µM for the first, 0.263 µM for the second.

Compared with Cc1nc(-c2cccc(F)c2)ncc1C(=O)Nn1cc(C)c2ncccc21 [Example 197, 2-(3-Fluoro-phenyl)-4-methyl-pyrimidine-5-carboxylic acid (3-methyl-pyrrolo [32-b]pyridin-1-yl)-amide], Cc1nc(-c2cccc(F)c2)ncc1C(=O)Nn1cc(C)c2cc(F)ccc21 [Example 10, 2-(3-Fluoro-phenyl)-4-methyl-pyrimidine-5-carboxylic acid (5-fluoro-3-methyl-indol-1-yl)-amide] is 3-fold higher in IC50: 0.002 µM for the first, 0.006 µM for the second.

CC1=NNC(=O)N(NC(=O)c2cnc(-c3cccc(O)c3)nc2)C1 [Example 154, 2-(3-Hydroxy-phenyl)-pyrimidine-5-carboxylic acid (6-methyl-3-oxo-2,5-dihydro-3H-[1,2,4]triazin-4-yl)-amide] and O=C(NN1CCCCC1)c1cnc(-c2cccc(F)c2)nc1 [Example 92, 2-(3-Fluoro-phenyl)-pyrimidine-5-carboxylic acid piperadin-1-yl-amide] are within 1.5-fold of each other in IC50: 0.021 µM for the first, 0.0195 µM for the second.

Going from Cc1nc(-c2ccccn2)ncc1C(=O)Nn1ccc2ncccc21 [Example 127, 4-Methyl-2-pyridin-2-yl-pyrimidine-5-carboxylic acid pyrrolo[3,2-b]pyridin-1-ylamide] to Cc1nc(-c2ccccn2)ncc1C(=O)Nn1c(C)cc2cc(F)ccc21 [Example 12, 4-Methyl-2-pyridin-2-yl-pyrimidine-5-carboxylic acid (5-fluoro-2-methyl-indol-1-yl)-amide], the IC50 falls from 0.013 µM to 0.008 µM (1.6-fold). The second is the more potent here.

Compared with O=C(NN1CCc2ccccc21)c1cnc(-c2ccccn2)nc1 [Example 103, 2-Pyridin-2-yl-pyrimidine-5-carboxylic acid (2,3-dihydro-indol-1-yl)-amide], O=C(Nn1ccc2ncccc21)c1cnc(-c2cccc(F)c2)nc1 [Example 118, 2-(3-Fluoro-phenyl)-pyrimidine-5-carboxylic acid pyrrolo[3,2-b]pyridin-1-ylamide] is 6-fold higher in IC50: 0.003 µM for the first, 0.018 µM for the second.

First: Cc1nc(-c2cccc[n+]2[O-])ncc1C(=O)Nn1cc(C)c2cc(F)ccc21 [Example 225, 4-Methyl-2-(1-oxy-pyridin-2-yl)-pyrimidin-5-carboxylic acid (5-fluoro-3-methyl-indol-1-yl)-amide]
Second: Cc1nc(-c2cccc(F)c2)ncc1C(=O)Nn1cc(C(C)(C)C(=O)O)c2cc(F)ccc21 [Example 164, 2-(5-Fluoro-1-{[2-(3-fluoro-phenyl)-4-methyl-pyrimidine-5-carbonyl]-amino}-1H-indol-3-yl)-2-methyl-propionic acid]
The IC50 of the first is 120-fold higher: 0.851 µM for the first, 0.007 µM for the second. The second is the more potent here.

First: COc1ccc2c(ccn2NC(=O)c2cnc(-c3cccc(F)c3)nc2C)c1 [Example 133, 2-(3-Fluoro-phenyl)-4-methyl-pyrimidine-5-carboxylic acid (5-methoxy-indol-1-yl)-amide]
Second: Cc1nc(-c2cccc(F)c2)ncc1C(=O)Nn1ccc2cc(F)ccc21 [Example 132, 2-(3-Fluoro-phenyl)-4-methyl-pyrimidine-5-carboxylic acid (5-fluoro-indol-1-yl)-amide]
The IC50 of the first is 3.2-fold lower: 0.006 µM for the first, 0.019 µM for the second.

Compared with Cc1cn(NC(=O)c2cnc(-c3cccc(C(F)(F)F)c3)nc2)c2ccc(F)cc12 [Example 227, 2-(3-Trifluoromethyl-phenyl)-pyrimidine-5-carboxylic acid (5-fluoro-3-methyl-indol-1-yl)-amide], CCc1cn(NC(=O)c2cnc(-c3cccc(F)c3)nc2C)c2cnccc12 [Example 195, 2-(3-Fluoro-phenyl)-4-methyl-pyrimidine-5-carboxylic acid (3-ethyl-pyrrolo[2,3c]pyridin-1-yl)-amide] is 37-fold lower in IC50: 0.262 µM for the first, 0.007 µM for the second. The second is the more potent here.
